Columns and labels:
[1] = tested on: gp120 hydrolysis by salivary IgA and serum IgA; assay type: biochemical, human
[2] = target: gp120 of HIV-1 strain BR004 (HIV-1, strain BR004)
[3] = target: gp120 of HIV-1 strain SF162 (HIV-1, strain SF162)
[4] = target: gp120 of HIV-1 strain ZA009 (HIV-1, strain ZA009)

Compound	inhibition of gp120 hydrolysis by serum and salivary IgA [1]	IC80, HIV neutralization (% decrease of p24; PHA-stimulated PBMC hosts) [2]	IC80, HIV neutralization (% decrease of p24; PHA-stimulated PBMC hosts) [3]	IC80, HIV neutralization (% decrease of p24; PHA-stimulated PBMC hosts) [4]
O=C(O)CN(CCN(CC(=O)O)CC(=O)O)CC(=O)O [EDTA]	did not detectably inhibit	–	–	–
MAb b12 (antibody)	–	> 20 µg/mL	14.1 µg/mL	> 20 µg/mL
c1cnc2c(c1)ccc1cccnc12 [1,10 phenanthroline]	did not detectably inhibit	–	–	–
NC(=O)CI [iodoacetamide]	did not detectably inhibit	–	–	–
pepstatin A	did not detectably inhibit	–	–	–
